Source: the supplement of paper PMC10307832

How the values were obtained:
Assay in all cases: relative viability (nuclei count vs DMSO), 5 days (fraction); higher = more cells survive
IPA-3 + Foretinib = compound: C1=CC=C2C(=C1)C=CC(=C2SSC3=C(C=CC4=CC=CC=C43)O)O [IPA-3] + COc1cc2c(Oc3ccc(NC(=O)C4(C(=O)Nc5ccc(F)cc5)CC4)cc3F)ccnc2cc1OCCCN1CCOCC1 [Foretinib] (partner 0.25 µM)
Method in brief: (§1)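 For relative viability, nuclei counts in treated wells were divided by those in vehicle wells. Lung cancer cell lines had been pin-tool dosed in 1536-well plates the day after seeding and cultured for 5 days, then fixed and stained in one step (final 0.05% Triton X-100, 1% formaldehyde, 1 ug/ml Hoechst) and imaged at 4×. Doses were one drug alone or a fixed anchor-drug dose plus five library-drug doses (not always all listed) in √10 steps, and values are duplicate-plate medians.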

RAF265 + Tozasertib = compound: Cn1c(Nc2ccc(C(F)(F)F)cc2)nc2cc(Oc3ccnc(-c4ncc(C(F)(F)F)[nH]4)c3)ccc21 [RAF265] + Cc1cc(Nc2cc(N3CCN(C)CC3)nc(Sc3ccc(NC(=O)C4CC4)cc3)n2)n[nH]1 [Tozasertib] (partner 0.1 µM)
Method in brief: as §1

Doramapimod + Pemetrexed = compound: Cc1ccc(-n2nc(C(C)(C)C)cc2NC(=O)Nc2ccc(OCCN3CCOCC3)c3ccccc23)cc1 [Doramapimod] + Nc1nc2[nH]cc(CCc3ccc(C(=O)N[C@@H](CCC(=O)O)C(=O)O)cc3)c2c(=O)[nH]1 [Pemetrexed] (partner 0.2 µM)
Method in brief: as §1

RAF265 + Decitabine = compound: Cn1c(Nc2ccc(C(F)(F)F)cc2)nc2cc(Oc3ccnc(-c4ncc(C(F)(F)F)[nH]4)c3)ccc21 [RAF265] + Nc1ncn([C@H]2C[C@H](O)[C@@H](CO)O2)c(=O)n1 [Decitabine] (partner 2 µM)
Method in brief: as §1

| Cell Line | relative viability (IPA-3 + Foretinib; first compound 0.2 µM) | relative viability (IPA-3 + Foretinib; first compound 0.6325 µM) | relative viability (IPA-3 + Foretinib; first compound 2 µM) | relative viability (IPA-3 + Foretinib; first compound 6.325 µM) | relative viability (IPA-3 + Foretinib; first compound 20 µM) | relative viability (RAF265 + Tozasertib; first compound 0.01 µM) | relative viability (RAF265 + Tozasertib; first compound 0.03162 µM) | relative viability (RAF265 + Tozasertib; first compound 0.1 µM) | relative viability (RAF265 + Tozasertib; first compound 1 µM) | relative viability (Doramapimod + Pemetrexed; first compound 0.02 µM) | relative viability (Doramapimod + Pemetrexed; first compound 0.06325 µM) | relative viability (Doramapimod + Pemetrexed; first compound 0.2 µM) | relative viability (Doramapimod + Pemetrexed; first compound 0.6325 µM) | relative viability (Doramapimod + Pemetrexed; first compound 2 µM) | relative viability (RAF265 + Decitabine; first compound 0.01 µM) | relative viability (RAF265 + Decitabine; first compound 0.03162 µM) | relative viability (RAF265 + Decitabine; first compound 0.1 µM) | relative viability (RAF265 + Decitabine; first compound 0.3162 µM) | relative viability (RAF265 + Decitabine; first compound 1 µM) | relative viability (RAF265 + Tozasertib; first compound 0.3162 µM) |
| --- | --- | --- | --- | --- | --- | --- | --- | --- | --- | --- | --- | --- | --- | --- | --- | --- | --- | --- | --- | --- |
| NCI-H1793 | 0.918 | 0.67 | 0.656 | 0.757 | 1.05 | 0.404 | 0.421 | 0.361 | 0.172 | 0.885 | 0.963 | 0.957 | 0.918 | 0.657 | 0.554 | 0.463 | 0.438 | 0.332 | 0.277 | – |
| LU99A | 0.877 | 0.734 | 0.687 | 0.763 | 0.921 | 0.318 | 0.285 | 0.28 | 0.195 | 0.175 | 0.196 | 0.155 | 0.18 | 0.323 | 0.814 | 0.842 | 0.652 | 0.477 | 0.302 | 0.291 |
| PC-14 | 1.07 | 0.938 | 0.941 | 0.874 | 1.07 | 0.629 | 0.555 | 0.655 | 0.542 | 0.129 | 0.128 | 0.134 | 0.148 | 0.109 | 0.24 | 0.204 | 0.231 | 0.163 | 0.226 | – |
| NCI-H2085 | 0.948 | 0.824 | 1.28 | 0.949 | 1.04 | 0.965 | 0.706 | 0.914 | 0.558 | 0.938 | 0.972 | 0.926 | 1.07 | 0.657 | 0.547 | 0.506 | 0.571 | 0.587 | 0.59 | 0.822 |
| NCI-H2170 | 1.03 | 0.942 | 1.04 | 0.948 | 1.13 | 0.734 | 0.651 | 0.752 | 0.538 | 0.278 | 0.261 | 0.256 | 0.28 | 0.259 | 0.482 | 0.439 | 0.499 | 0.366 | 0.386 | 0.587 |
| HCC-78 | 0.555 | 0.611 | 0.606 | 0.668 | 0.655 | 0.349 | 0.472 | 0.417 | 0.396 | 0.879 | 0.883 | 0.918 | 0.967 | 0.887 | 0.852 | 0.73 | 0.752 | 0.731 | 0.669 | 0.463 |
| NCI-H1395 | 1.07 | 0.901 | 0.98 | 0.934 | 1.02 | 0.677 | 0.667 | 0.666 | 0.609 | 0.82 | 1.04 | 0.889 | 0.836 | 0.696 | 0.753 | 0.664 | 0.66 | 0.707 | 0.549 | 0.84 |
| NCI-H2126 | 1.21 | 1.23 | 0.904 | 1.17 | 1.18 | 0.905 | 0.844 | 0.826 | 0.607 | 0.69 | 0.667 | 0.605 | 0.667 | 0.642 | 0.607 | 0.56 | 0.563 | 0.573 | 0.412 | 0.881 |
| H3255 | 0.861 | 0.865 | 0.876 | 0.832 | 0.861 | 0.553 | 0.54 | 0.605 | 0.476 | 0.577 | 0.56 | 0.562 | 0.559 | 0.525 | 0.666 | 0.564 | 0.682 | 0.198 | 0.43 | – |
| HCC-15 | 1.11 | 0.965 | 1.03 | 1.01 | 1.02 | 0.406 | 0.32 | 0.538 | 0.278 | 0.225 | 0.231 | 0.245 | 0.211 | 0.224 | 0.714 | 0.613 | 0.524 | 0.545 | 0.42 | 0.401 |
| NCI-H661 | 1.01 | 0.988 | 0.995 | 0.964 | 0.997 | 0.374 | 0.35 | 0.314 | 0.35 | 1.05 | 0.861 | 0.923 | 0.96 | 0.901 | 0.692 | 0.527 | 0.435 | 0.442 | 0.378 | 0.351 |
| NCI-H2009 | 1.32 | 1.15 | 1.23 | 1.16 | 1.29 | 0.758 | 0.721 | 0.745 | 0.476 | 1.03 | 1.04 | 1.06 | 1.01 | 1 | 0.43 | 0.376 | 0.377 | 0.459 | 0.335 | 0.809 |
| NCI-H2342 | 1.11 | 1.04 | 1.15 | 1.19 | 1.3 | 0.551 | 0.592 | 0.542 | 0.463 | 0.733 | 0.759 | 0.789 | 0.788 | 0.784 | 0.717 | 0.672 | 0.727 | 0.784 | 0.714 | 0.52 |
| ChaGo-K-1 | 0.933 | 0.875 | 0.996 | 0.93 | 1.14 | 0.215 | 0.246 | 0.217 | 0.235 | 0.263 | 0.254 | 0.255 | 0.26 | 0.243 | 0.584 | 0.546 | 0.512 | 0.516 | 0.437 | 0.243 |
| COR-L23 | 1.12 | 0.964 | 1.04 | 0.928 | 0.906 | 0.212 | 0.176 | 0.208 | 0.161 | 0.222 | 0.203 | 0.212 | 0.19 | 0.2 | 0.553 | 0.399 | 0.436 | 0.377 | 0.313 | 0.201 |
| EMC-BAC-2 | 1.07 | 1 | 1.07 | 1.01 | 1.22 | 0.28 | 0.266 | 0.209 | 0.082 | 0.455 | 0.426 | 0.418 | 0.46 | 0.369 | 1.05 | 0.842 | 0.958 | 0.832 | 0.547 | 0.202 |
